Entries after “also recorded” stand apart in the source; their conditions may differ.
Legend:
Assay type in all cases: cell-based
RPE cells [1] = assay: Reversal of sulindac protection of RPE cells against UV damage by PKC/PKG inhibitors; conditions: for reversal of the protective effect of sulindac against UV damage: 1200 mj UVB, rottlerin at 3 uM
Description: (§1) The ability of sulindac to protect RPE cells against oxidative stress was determined by analyzing cellular viability following treatment of cultured ARPE19 cells with sulindac, before exposing the cells to conditions leading to oxidative damage. Following 24 hr treatment of the cells with sulindac, ARPE19 cells were exposed to either a range of tert-Butyl Hydrogen peroxide (t-BHP) concentrations for 24 hrs or a range of intensities of ultraviolet B (UVB) to induce oxidative stress. To test the involvement of PKC, the non-specific PKC blocker chelerythrine and also specific blockers for individual isoforms of PKC were used. The possible role of PKG was investigated by the addition of PKG inhibitor Rp-8-Br-PET-CGMPs along with sulindac. Western blotting was used to detect induction of late phase markers of preconditioning.
The sulindac protective effect on RPE cells is due to ischemic preconditioning. The IPC response in tissues is often initiated by ROS and/or NO which activates mitochondrial PKC epsilon as part of a complex mechanism that also involves the opening of the mitochondrial ATP sensitive K+ channel and preventing the formation of the mitochondrial permeability transition pore. We have looked more closely at the possible role of PKC in the protection of RPE cells by sulindac, as was shown previously in cardiac studies. […] Based on previous preconditioning studies it seemed reasonable to look specifically at PKC epsilon. […] In the previous cardiac study it was also shown that two late stage preconditioning markers, iNOS and Hsp27 were induced by sulindac.
The role of PKG in the sulindac protective effect was examined. The above results support previous studies that agents that can initiate an ischemic preconditioning response may have therapeutic value in delaying the onset, or slowing the progression, of retinal diseases arising from ischemia and oxidative damage. […] Both sulindac and sildenafil are known to be inhibitors of PDE5, which results in increasing the level of cGMP and activation of PKG. […]

RPE cells [2] = assay: Protection of RPE cells against UVB radiation damage, cell viability
Description: as §1
It seemed reasonable to investigate whether sulindac could also protect other cells, such as RPE cells, which are susceptible to oxidative damage and known to have a strong ischemic preconditioning (IPC) response. Two types of oxidative stress were used in these experiments, either exposure of the RPE cells to an oxidizing agent such as TBHP, or exposure to UV light. In these experiments the RPE cells were pretreated for 24 hours with varying concentrations of sulindac, sulindac sulfone or sildenafil as described in the Figures. […] To determine whether this protective effect was due to the NSAID activity of sulindac, sulindac sulfone, a metabolite, of sulindac that has no NSAID activity was tested in place of sulindac for its UV protective effect. […] It should also be noted that sulindac sulfone is not a substrate for the Msr system which eliminates the possibility that the sulindac protective effect was related to its being a substrate for the Msr enzymes and functioning as a catalytic anti-oxidant in an ROS scavenging system.

ARPE-19 cells [3] = assay: Protection of ARPE-19 cells against H2O2 induced oxidative stress, cell viability; conditions: incubated 24 hrs, then 50 μM H2O2
Description: (§2) For protecting RPE cells from oxidative stress induced damage we used the NSAID, sulindac. For our experiment we used ARPE-19 cells cultured in 96 well plates. The cells were preincubated with sulindac for 48 hours prior to exposing them to oxidative stress. Our oxidizing agents of choice were TBHP and Hydrogen peroxide (H2O2). We also stressed the ARPE-19 cells with 24 hours of Hypoxia treatment. After the stress the cellular viability was evaluated using the MTS assay. This assay uses a tetrazolium compound that is bioreduced into a formazan product in the cells. The signal generated (color intensity) is directly proportional to the number of viable (metabolically active) cells in the wells.
The next experiment was designed to determine if preincubation with sulindac is also effective in protecting ARPE-19 cells against oxidative stress induced by treatment of retina cells with H2O2. Cells were incubated with sulindac for 24 hrs and then exposed to 50 μM H2O2.

ARPE-19 cells [4] = assay: Protection of ARPE-19 cells against 24 hr hypoxic stress, cell viability; conditions: 24 hours preincubation, 24 hr hypoxia
Description: as §2
To test the ability of sulindac; in protecting against a variety of stresses ARPE-19 cells were exposed to 24 hours of hypoxic stress following sulindac preincubation. The ARPE-19 cells were grown in 96 well plates inside a hypoxia chamber having only 5% oxygen for 24 hours to induce hypoxic stress. Prior to exposing the cells to hypoxia, one set of cells was incubated 24 hours with sulindac.

ARPE-19 cells [5] = assay: Protection of ARPE-19 cells against TBHP oxidative stress, cell viability (MTS)
Description: as §2
(§3) ARPE-19 cells were preincubated with different concentrations of sulindac ranging from 50 uM to 400 μM.
as §1
It seemed reasonable to investigate whether sulindac could also protect other cells, such as RPE cells, which are susceptible to oxidative damage and known to have a strong ischemic preconditioning (IPC) response. Two types of oxidative stress were used in these experiments, either exposure of the RPE cells to an oxidizing agent such as TBHP, or exposure to UV light. […]

ARPE-19 cells [6] = conditions: human, 48 h
Description: as §2, §3

iNOS = assay: Western blot of late phase preconditioning marker iNOS in RPE cells; conditions: RPE cells pretreated 48 hours
Description: as §1
(§4) The sulindac protective effect on RPE cells is due to ischemic preconditioning. The IPC response in tissues is often initiated by ROS and/or NO which activates mitochondrial PKC epsilon as part of a complex mechanism that also involves the opening of the mitochondrial ATP sensitive K+ channel and preventing the formation of the mitochondrial permeability transition pore. We have looked more closely at the possible role of PKC in the protection of RPE cells by sulindac, as was shown previously in cardiac studies. […]

Hsp27 = assay: Western blot of late phase preconditioning marker Hsp27 in RPE cells; conditions: RPE cells pretreated 48 hours
Description: as §1, §4

SMILES: O=c1c2nc(Br)n([C@@H]3O[C@@H]4CO[P@@](O)(=S)O[C@H]4[C@H]3O)c2nc2[nH]c(-c3ccccc3)cn12 [Rp-8-Br-PET-CGMPs]
- inhibition of the sulindac protective effect on RPE cells exposed to UV damage (RPE cells [1]; 250 nM, 24 hours with sulindac): > 50%

SMILES: CCCc1nn(C)c2c(=O)[nH]c(-c3cc(S(=O)(=O)N4CCN(C)CC4)ccc3OCC)nc12 [sildenafil]
- protection against UV damage (RPE cells [2]; 20 uM, 1200 mj UVB): can also protect RPE cells against UV damage similar to sulindac

SMILES: COc1ccc2c(c[n+](C)c3c4cc5c(cc4ccc23)OCO5)c1OC [chelerythrin]
- reversal of the protective effect of sulindac against UV damage (RPE cells [1]): significantly reversed

SMILES: CC(=O)c1c(O)c(C)c(O)c(Cc2c(O)c3c(c(C(=O)/C=C/c4ccccc4)c2O)OC(C)(C)C=C3)c1O [rottlerin]
- reversal of the protective effect of sulindac against UV damage (RPE cells [1]): no reversal

SMILES: CC1=C(CC(=O)O)c2cc(F)ccc2/C1=C\c1ccc(S(C)(=O)=O)cc1 [sulindac sulfone]
- protection against H2O2 induced oxidative stress (ARPE-19 cells [3]): only partial protection
- protection against hypoxia induced stress (cell viability) (ARPE-19 cells [4]): partial protection
- protection against UV damage (RPE cells [2]; 200 uM, 24 hours pretreatment): complete protection

SMILES: CC1=C(CC(=O)O)c2cc(F)ccc2/C1=C\c1ccc([S+](C)[O-])cc1 (centres unmarked) [sulindac]
- protection against t-BHP insult, survival (ARPE-19 cells [5]; 24 hrs pretreatment, t-BHP 24 hrs): protected them against both types of insult and enhanced survival
- protection against loss of cell viability due to oxidative stress by TBHP (ARPE-19 cells [5]; ARPE-19 cells preincubated with 50 uM to 400 μM sulindac, 48 hours, MTS assay): protected the ARPE-19 cells against loss of cell viability
- protection against TBHP damage (cell viability) (ARPE-19 cells [5]; sulindac 125 and 200 uM, 24 hours pretreatment, varying TBHP): essentially complete protections
- protection against H2O2 induced oxidative stress (ARPE-19 cells [3]): capable of protecting retina cells against H2O2 induced oxidative stress
- protection against hypoxia induced stress (cell viability) (ARPE-19 cells [4]): significant protection; also recorded: higher viability
- protection against UV exposure (RPE cells [2]; 500 uM, 24 hours pretreatment, 1200 mj UV): 50%
- protection against UVB insult, survival (RPE cells [2]; 24 hrs pretreatment, range of UVB intensities): protected them against both types of insult and enhanced survival
- sulindac concentration toxic to ARPE-19 cells (acute reduction of cell viability) (ARPE-19 cells [6]): ≥ 200 μM
- induction of iNOS (iNOS): significant induction
- induction of Hsp27 (Hsp27): significant induction

Source: patent publication US20170143653A1, “USE OF SULINDAC FOR PROTECTING RETINAL PIGMENT EPITHELIAL CELLS AGAINST OXIDATIVE STRESS” (CHS PHARMA, INC., priority 2011, published 2017)
